Results taken from patent publication US20200078404A1, “COMBINATION OF A CELL THERAPY AND AN IMMUNOMODULATORY COMPOUND” (Juno Therapeutics, Inc., priority 2017, published 2020).

Tests used:
RPMI-8226 target cells = experiment: Cytolytic activity of anti-BCMA CAR T cells co-cultured with RPMI-8226 target cells with or without lenalidomide; assay type: cell-based, human
Procedure: […]. […] Cells from each condition were plated in triplicate.

OPM-2-luciferase tumor = experiment: OPM-2 orthotopic xenograft mouse model, Study 2 (concurrent or delayed lenalidomide); assay type: in vivo
Procedure: In a further study, NOD/Scid/gc^−/− (NSG) mice were injected (i.v.) with OPM-2-luciferase cells as described in Study 1 above and allowed to engraft for 14 days prior to CAR-T (or mock) cell; infusion (i.v.).
At 14 days after tumor cell injection (day 0), a subtherapeutic dose of CAR+ T cells (1×10^6 CAR-T cells (generated from two different donors)) or mock control cells was injected intravenously. Data are presented as mean±SEM. For in vivo survival, a Gehan-Breslow-Wilcoxon test was used to compare groups.
FIG. 10E depicts the results of tumor burden assessment through day 60, as analyzed by the bioluminescence […]. […] P values were obtained by likelihood ratio tests comparing the full model with the effect of interest against the model without the effect of interest.
Blood from the treated mice was collected for CAR-T pharmacokinetic analysis, and cells were stained with antibodies to exclude mouse-specific cells (H2-kd, TER119, and muCD45) and analyzed by flow cytometry. Cells were gated on CD45+CD3+CAR+ and the cells per microliter of blood was determined. For pharmacokinetic measurements, each time point was analyzed by one-way ANOVA and Tukey post-hoc test. FIGS. 10G and 10H show the flow cytometric analysis of mock control cells and CAR-T cells in the blood of the mice at days 8, 14, 22, and 28 following injection of the CAR-T cells from two donors.

anti-BCMA CAR-T cells = experiment: Prestimulation of anti-BCMA CAR-T cells on BCMA beads for 7 days: phenotype, cytolytic activity and cytokines with RPMI-8226; assay type: cell-based, human
Procedure: Expression of CD25, PD-1, Tim3 and Lag3 on CAR T cells (using an antibody for surrogate CAR marker) cultured under the different conditions then was assessed by flow cytometry.
Percentage killing was normalized to anti-BCMA CAR T cells prestimulated on beads in the presence of vehicle. Cytokine production was assessed by ELISA from supernatant following culture with target cells for 24 hours. Experiments were performed twice in 3 donors. […] P values were obtained by likelihood ratio tests comparing the full model with the effect of interest against the model without the effect of interest.

anti-CD19 CAR+ T cells [1] = experiment: CD25 and PD-1 surface expression of anti-CD19 CAR+ T cells incubated with K562-CD19 cells; assay type: cell-based, human
Procedure: After 120 hours of culture, cells were isolated and assessed by flow cytometry for surface expression of CD25 or PD-1 in CD4+ or CD8+ T cell subsets.

anti-BCMA CAR T cells = experiment: Cytokines of anti-BCMA CAR T cells stimulated with BCMA-conjugated beads (supernatant, intracellular); assay type: cell-based, human; conditions: 24 hours
Procedure: Cryofrozen anti-BCMA CAR T cells, produced substantially as described in Example 2 and formulated at a 1:1 ratio of CD4+ and CD8+ T cells, were thawed.
Twenty four hours after addition of BCMA-conjugated beads, the presence of TNF-α, IFNγ, and IL-2 in culture supernatants was assessed.
In a further exemplary study, two different anti-BCMA CAR T cell compositions were generated from different donors, each containing T cells expressing the same anti-BCMA CAR. The cells were thawed and incubated with beads (diameter about 4.5 μm) from a 5 μg/mL or 200 μg/mL BCMA-conjugated bead composition generated as described in Example 1. […] Twenty four hours after addition of BCMA-conjugated beads, IL-2 production by the anti-BCMA CAR+ T cells was assessed in culture supernatants.
The cells were gated on transduced, live CD3+ cells, and assessed by flow cytometry for intracellular cytokine accumulation of IFNγ and TNFα in CD4+ and CD8+ cells.

anti-BCMA CAR+ T cells [2] = experiment: Serial restimulation of anti-BCMA CAR+ T cells with irradiated MM1.S cells: expansion, cytokines, CD25; assay type: cell-based, human
Procedure: Anti-BCMA CAR+ T cells generated as described above were plated in triplicate at 1×10^5 cells/well on 96-well plates.
Every 3-4 days (start of each new round), CAR T cells were counted. […] 8 rounds of stimulation were carried out during a 31 day culture period. For some rounds, at re-plating, cells were assessed for phenotypic markers via flow cytometry.
Culture conditions were reset every 3-4 days. Replating was maintained for 28 days or until the cell count was <50,000 cells. Experiments were performed in triplicate in 3 donors.

anti-CD19 CAR T cells = experiment: Proliferation of anti-CD19 CAR T cells under sub-optimal anti-CD3 stimulation (CTV dilution); assay type: cell-based, human; conditions: 5 μM lenalidomide, sub-optimal anti-CD3, 72 hours
Excerpt: The CAR contained an anti-CD19 scFv, an Ig-derived spacer, a human CD28-derived transmembrane domain, a human 4-1BB-derived intracellular signaling domain and a human CD3 zeta-derived signaling domain. The nucleic acid construct encoding the CAR also included a truncated EGFR (tEGFR) sequence for use as a transduction marker, separated from the CAR sequence by a self-cleaving T2A sequence.

anti-BCMA CAR+ T cells [3] = experiment: 3-D reconstructed bone marrow (rBone) myeloma model with RPMI-8226; assay type: cell-based, human; conditions: 1.0 μM lenalidomide
Excerpt: To assess cell function in the context of a three-dimensional (3-D) human BCMA-expressing tissue microenvironment, a reconstructed bone marrow (rBone™) (z[…], San Jose, Calif.) was embedded with BCMA-expressing RPMI-8226.
After 2 or 7 days, cells were isolated and assessed by flow cytometry for surface expression of CD3, CD25, CD4, and CD8.

[4] = test system: anti-CD19 CAR-expressing T cells; experiment: T cell surface markers of anti-CD19 CAR-expressing T cells incubated with K562.CD19; assay type: cell-based, human; conditions: all donors and E:T ratios
anti-CD19 CAR+ T cells [5] = experiment: IL-10 in supernatants of anti-CD19 CAR+ T cells incubated with K562-CD19 cells; conditions: E:T 3:1 or 9:1, 24 hours
[6] = 1 μM lenalidomide during the prestimulation period
[7] = 1 μM lenalidomide, 7 days on BCMA beads
[8] = 0.1 μM lenalidomide, repeated stimulation

Q: How did the “target cell killing by anti-BCMA CAR+ T cells” value (RPMI-8226 target cells; 1 μM or 10 μM lenalidomide, E:T 0.3:1, day 6, vs absence of lenalidomide) turn out when Nc1cccc2c1CN(C1CCC(=O)NC1=O)C2=O (stereo not drawn) [lenalidomide, 3-(4-amino-1-oxo-1,3-dihydro-2H-isoindol-2-yl)piperidine-2,6-dione] was run?
A: greater degree of target cell killing

Q: And the “time at which the effect of lenalidomide on cytolytic activity emerges” value (RPMI-8226 target cells; in culture)?
A: > 50 h

Q: What about the “treatment effect of lenalidomide on CAR T cytolytic activity” value (RPMI-8226 target cells; three healthy donors and one IMiD-refractory patient, 0.01-10 μM) of the same molecule?
A: appeared to be donor-dependent

Q: And the “tumor growth and tumor burden” value (OPM-2-luciferase tumor; added to subtherapeutic CAR+ T cells from both donors, through day 60)?
A: slower tumor growth and reduced tumor burden

Q: What about the “CAR T counts in the peripheral blood” value (OPM-2-luciferase tumor; concurrent lenalidomide, after 7 days, not at later time points) of the same molecule?
A: increased CAR T counts in the peripheral blood

Q: And the tumor burden (OPM-2-luciferase tumor; concurrent lenalidomide, donor 1, vs vehicle with anti-BCMA CAR T)?
A: significant decrease in tumor burden

Q: What about the survival (OPM-2-luciferase tumor; concurrent lenalidomide, donor 1 and donor 2) of the same molecule?
A: increased survival

Q: And the “cytokine production of prestimulated CAR-T cells” value (anti-BCMA CAR-T cells; [6])?
A: trend toward increased cytokine production

Q: What about the “cytolytic function of prestimulated CAR-T cells” value (anti-BCMA CAR-T cells; [6]) of the same molecule?
A: preserved cytolytic function

Q: And the “CD25 expression (MFI)” value (anti-BCMA CAR-T cells; [7])?
A: increasing CD25 expression

Q: What about the “PD-1 expression (MFI)” value (anti-BCMA CAR-T cells; [7]) of the same molecule?
A: reduced PD-1 expression

Q: And the total cell count (anti-BCMA CAR-T cells; 7-day period, all donors)?
A: did not alter the total cell count

Q: And the “CAR+ viability” value (anti-BCMA CAR-T cells; 7 days on BCMA beads, 3 healthy donors)?
A: significantly increased CAR+ viability

Q: What about the “percentage positive for Lag3 expression” value (anti-BCMA CAR-T cells; CD4+ and CD8+ CAR+ populations, all donors) of the same molecule?
A: increased

Q: And the “percentage of PD-1+ cells” value (anti-BCMA CAR-T cells; CD4+ population)?
A: decrease in the percentage of PD-1+ cells

Q: What about the “surface expression of Tim3” value (anti-BCMA CAR-T cells; CD8+ population, three donors) of the same molecule?
A: increased the surface expression of Tim3 in the CD8+ population

Q: What about the “CD25 expression in CD4+ and CD8+ T cells” value (anti-CD19 CAR+ T cells [1]; 1600 nM lenalidomide, E:T 2.5:1, 120 hours) of the same molecule?
A: higher levels of CD25 expression

Q: What about the “surface expression of PD-1 in CD4+ or CD8+ T cells” value (anti-CD19 CAR+ T cells [1]; up to 1600 nM lenalidomide, 120 hours) of the same molecule?
A: No difference in surface expression of PD-1

Q: What about the “intracellular cytokine levels of IFNγ and TNFα” value (anti-BCMA CAR T cells; 0.1 μM or 1 μM lenalidomide, 5, 50 or 200 μg/mL beads) of the same molecule?
A: increased by lenalidomide

Q: What about the IL-2 production (anti-BCMA CAR T cells; 1 μM or 5 μM lenalidomide, 5 or 200 μg/mL BCMA beads, two donors) of the same molecule?
A: increased cytokine production

Q: What about the “BCMA-induced CAR+ T cell cytokine production (IFNγ, IL-2, TNF-α)” value (anti-BCMA CAR T cells; 5 μM lenalidomide, 5 or 50 μg/mL BCMA beads) of the same molecule?
A: increased BCMA-induced CAR+ T cell cytokine production

Q: What about the projected cell counts (anti-BCMA CAR+ T cells [2]; 0.1 μM lenalidomide, 3 donors, over 28 days) of the same molecule?
A: increased projected cell counts

Q: And the “CAR T CD25 expression (MFI)” value (anti-BCMA CAR+ T cells [2]; [8])?
A: significant increase in CAR T CD25 expression

Q: And the “IL-2, IFN-γ, and TNF-α production in the media” value (anti-BCMA CAR+ T cells [2]; [8])?
A: significant increase

Q: And the CAR-T expansion (anti-BCMA CAR+ T cells [2]; 0.1 μM lenalidomide, six donors)?
A: an increase or no change in CAR-T expansion

Q: And the “expansion of anti-BCMA CAR T cells” value (anti-BCMA CAR+ T cells [2]; 0.01-10 μM lenalidomide, by day 14, vs no lenalidomide)?
A: increased expansion of anti-BCMA CAR T cells

Q: What about the “expansion of cells expressing two different human anti-BCMA CARs” value (anti-BCMA CAR+ T cells [2]; beginning between day 21 and day 28) of the same molecule?
A: increase expansion in both cell populations

Q: What about the “proliferation of CAR+ T cells” value (anti-CD19 CAR T cells) of the same molecule?
A: enhanced proliferation of the CAR+ T cells

Q: And the “CD25+ expression in CD4+ and CD8+ T cell populations” value (anti-BCMA CAR+ T cells [3])?
A: increase in CD25+ expression

Q: What about the “total number of CD3+ cells” value (anti-BCMA CAR+ T cells [3]; day 7) of the same molecule?
A: increase in total number of CD3+ cells

Q: What about the “expression of CD27” value [4] of the same molecule?
A: downregulated in a concentration-dependent manner

Q: What about the “expression of CD45RO” value [4] of the same molecule?
A: increased

Q: What about the “secretion and/or accumulation of IL-10” value (anti-CD19 CAR+ T cells [5]) of the same molecule?
A: dose-dependently increased secretion and/or accumulation of IL-10
